The text below walks through data of ChEMBL document CHEMBL1201862, “PubChem BioAssay data set” (2004).

SMILES strings stand for the structures.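 Five compound concentrations were applied to cells in 96-well plates for 48 hours; endpoints were derived by simple linear interpolation of the resulting dose-response curve. Here, GI50 denotes the concentration required for 50% inhibition of growth.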 Calls of active or inactive are those of the source. Rule as the data show it: active = GI50 up to about 1.1 µM and inactive = higher.

Some test systems named below: K562; NCI-H23; SW-620; SF-295; DU-145; MCF7; OVCAR-8; RPMI-8226; NCI-H460; SK-MEL-2; UACC-257; SR; COLO 205; NCI-H226; UO-31; T47D; SK-MEL-28; ACHN; SK-OV-3; HCT-15.
Common to all, as to test: DTP human tumour cell line panel, 48 h

As for `CCOC(=O)C1(Cc2ccccc2)C=CN(C(=O)c2ccccc2)C=C1`, the GI50 in the assay with K562 was 27 µM (inactive); with NCI-H23, 30.1 µM (inactive); in the assay with SW-620, 32.2 µM (inactive); in the assay with SF-295, 36 µM (inactive); in the assay on DU-145, 57.3 µM (inactive); in the assay on MCF7, 30.4 µM (inactive). Moreover, the GI50 is 34.4 µM (inactive) with OVCAR-8; 18 µM (inactive) with RPMI-8226; 51.1 µM (inactive) with NCI-H460; 18.1 µM (inactive) in the assay on SK-MEL-2; 20.6 µM (inactive) with UACC-257; 22.4 µM (inactive) in the assay on SR. Besides, the GI50 is 17.8 µM (inactive) with COLO 205; > 100 µM (inactive) in the assay with NCI-H226; 45.8 µM (inactive) in the assay with UO-31; 16.1 µM (inactive) with T47D; 30.8 µM (inactive) in the assay with SK-MEL-28; 34.1 µM (inactive) with ACHN. The GI50 with SK-OV-3 is > 100 µM (inactive); in the assay on HCT-15, 32.1 µM.
Consider `NC(CSCc1ccccc1)C(=O)O` (stereo not given), for which the GI50 in the assay on K562, in the assay with NCI-H23, with SW-620, in the assay on SF-295, in the assay with DU-145 and with MCF7 was > 100 µM (inactive) in each case. Moreover, the GI50 in the assay with OVCAR-8, with RPMI-8226, in the assay on NCI-H460, in the assay with SK-MEL-2, in the assay on UACC-257 and in the assay with SR was > 100 µM (inactive) each time. For the same molecule, the GI50 in the assay with COLO 205, in the assay with NCI-H226, in the assay with UO-31, in the assay with T47D, in the assay with SK-MEL-28 and in the assay on ACHN was > 100 µM (inactive) each time. In addition, the GI50 in the assay with SK-OV-3 was > 100 µM (inactive); in the assay with HCT-15, more than 100 µM.
For `CC1(C)OC2COC(c3n[nH]c4c(=O)[nH]c(=O)[nH]c34)C2O1` (stereo not given), the GI50 in the assay with K562, with NCI-H23, with SW-620, in the assay with SF-295, in the assay on DU-145 and in the assay on MCF7 was > 100 µM (inactive) each time. The GI50 with OVCAR-8, with RPMI-8226, with NCI-H460, in the assay on SK-MEL-2, with UACC-257 and in the assay on SR was > 100 µM (inactive) each time. Besides, the GI50 with COLO 205, in the assay on NCI-H226, in the assay on UO-31, in the assay on T47D, in the assay with SK-MEL-28 and in the assay with ACHN was > 100 µM (inactive) in each case. The GI50 is > 100 µM (inactive) in the assay on SK-OV-3 and more than 100 µM in the assay with HCT-15.
As for `CCCC(=O)Nc1cc(/C=C/C(=O)N2CC(CCl)c3c2cc([N+](=O)[O-])c2ccccc32)n(C)c1` (stereo not given), the GI50 in the assay on K562 was 0.738 µM (active); with NCI-H23 it was 1 µM (active); with SW-620, > 100 µM (inactive); in the assay with SF-295, > 52.1 µM (inactive); with DU-145, 0.632 µM (active); in the assay on MCF7 it was 13.8 µM (inactive). Besides, the GI50 in the assay on OVCAR-8 is 16.5 µM (inactive); in the assay on RPMI-8226, 0.579 µM (active); in the assay with NCI-H460, 7.57 µM (inactive); with SK-MEL-2 it was > 100 µM (inactive); in the assay on UACC-257, > 100 µM (inactive); in the assay on SR, 0.796 µM (active). Also, the GI50 was > 100 µM (inactive) with COLO 205; > 100 µM (inactive) in the assay with NCI-H226; > 75.3 µM (inactive) with UO-31; > 100 µM (inactive) in the assay with T47D; > 100 µM (inactive) in the assay on SK-MEL-28; 1.32 µM (inactive) with ACHN. Besides, the GI50 in the assay with SK-OV-3 was > 100 µM (inactive); in the assay on HCT-15, more than 4.65 µM.
As for `CC(C)(C)C(=O)CC1=Nc2ccccc2SC1(O)CC(=O)C(C)(C)C` (stereo not given), the GI50 is 21.5 µM (inactive) in the assay on K562; 24.1 µM (inactive) in the assay on NCI-H23; 25.5 µM (inactive) with SW-620; 24.8 µM (inactive) in the assay on SF-295; 25.1 µM (inactive) in the assay with DU-145; 25 µM (inactive) in the assay with MCF7. The GI50 is 21.9 µM (inactive) in the assay on OVCAR-8; 8.67 µM (inactive) with RPMI-8226; 13.5 µM (inactive) in the assay with NCI-H460; 13.7 µM (inactive) with SK-MEL-2; 37.1 µM (inactive) with UACC-257; 11.8 µM (inactive) in the assay on SR. The GI50 with COLO 205 is 16.3 µM (inactive); with NCI-H226 it was 15.2 µM (inactive); in the assay with UO-31 it was 12.3 µM (inactive); with T47D, 19.7 µM (inactive); with SK-MEL-28, 22.8 µM (inactive); with ACHN it was 23.2 µM (inactive). Moreover, the GI50 is 13.5 µM (inactive) with SK-OV-3 and 15.3 µM in the assay with HCT-15.
As for `Cc1cn(C2CC(O)C(COC(N)=O)O2)c(=O)[nH]c1=O` (stereo not given), the GI50 in the assay on K562, with NCI-H23, with SW-620, in the assay on SF-295, in the assay with DU-145 and with MCF7 was > 100 µM (inactive) in each case. In addition, the GI50 in the assay on OVCAR-8, in the assay with RPMI-8226, in the assay on NCI-H460, in the assay with SK-MEL-2, with UACC-257 and in the assay on SR was > 100 µM (inactive) in each case. In addition, the GI50 with COLO 205, with NCI-H226, in the assay with UO-31, in the assay on T47D, in the assay on SK-MEL-28 and in the assay on ACHN was > 100 µM (inactive) each time. Besides, the GI50 is > 100 µM (inactive) with SK-OV-3 and more than 100 µM in the assay on HCT-15.
On to `COc1cc(Cn2c3c(c4c(CN(C)C)c(O)ccc42)C(=O)c2ccccc2C3=O)cc(OC)c1`, for which the GI50 in the assay on K562 is 14 µM (inactive); with NCI-H23, 15.7 µM (inactive); in the assay with SW-620, 18.7 µM (inactive); in the assay with SF-295 it was 21.5 µM (inactive); with DU-145, 21.7 µM (inactive); in the assay with MCF7, 15.9 µM (inactive). The GI50 was 14.6 µM (inactive) in the assay on OVCAR-8; 18.5 µM (inactive) in the assay with RPMI-8226; 17.7 µM (inactive) in the assay on NCI-H460; 16.3 µM (inactive) with SK-MEL-2; 22.8 µM (inactive) in the assay on UACC-257; 10.3 µM (inactive) with SR. Besides, the GI50 in the assay with COLO 205 was 25.5 µM (inactive); with NCI-H226, 33.2 µM (inactive); in the assay with UO-31, 14.6 µM (inactive); in the assay on T47D it was 15.4 µM (inactive); in the assay on SK-MEL-28, 15.8 µM (inactive); in the assay on ACHN it was 15.3 µM (inactive). For the same molecule, the GI50 in the assay with SK-OV-3 was 20.1 µM (inactive); in the assay with HCT-15, 14 µM.
Consider `Cc1c(F)c(N)c2c(=O)cc(-c3ccc(NC(=O)CN(C)C)c(F)c3)oc2c1F`, for which the GI50 in the assay with K562 was 26.7 µM (inactive); in the assay with NCI-H23, > 100 µM (inactive); in the assay on SW-620, 18.3 µM (inactive); with SF-295, 68.1 µM (inactive); with DU-145 it was 82.8 µM (inactive); with MCF7, 7.29 µM (inactive). The GI50 with OVCAR-8 is 38.5 µM (inactive); with RPMI-8226 it was 23.7 µM (inactive); in the assay with NCI-H460 it was 24.2 µM (inactive); in the assay with SK-MEL-2 it was 60.7 µM (inactive); in the assay on UACC-257, > 100 µM (inactive); in the assay with SR, 17.6 µM (inactive). In addition, the GI50 in the assay with COLO 205 is 36.6 µM (inactive); in the assay on NCI-H226 it was 11 µM (inactive); in the assay with UO-31 it was 86.1 µM (inactive); in the assay with T47D, > 100 µM (inactive); with SK-MEL-28, 47.9 µM (inactive); in the assay on ACHN it was > 100 µM (inactive). In addition, the GI50 in the assay on SK-OV-3 was > 100 µM (inactive); in the assay on HCT-15, 61.8 µM.
As to `O=C(Nc1ccc2nc(O)n[n+]([O-])c2c1)C(F)(F)F`, the GI50 with K562, in the assay with NCI-H23, in the assay with SW-620, in the assay on SF-295, in the assay on DU-145 and with MCF7 was > 100 µM (inactive) throughout. For the same molecule, the GI50 in the assay on OVCAR-8, in the assay on RPMI-8226, with NCI-H460, in the assay with SK-MEL-2, in the assay on UACC-257 and in the assay on SR was > 100 µM (inactive) in each case. The GI50 in the assay with COLO 205, with NCI-H226, with UO-31, in the assay on T47D, with SK-MEL-28 and with ACHN was > 100 µM (inactive) each time. Moreover, the GI50 in the assay on SK-OV-3 was > 100 µM (inactive); with HCT-15 it was more than 100 µM.
On to `Cc1cc(/N=N/c2c(O)ccc3ccccc23)ccc1/N=N/c1cccc([N+](C)(C)C)c1`, for which the GI50 is 13.2 µM (inactive) in the assay with K562; 13.3 µM (inactive) in the assay on NCI-H23; 10.1 µM (inactive) with SW-620; 20.6 µM (inactive) with SF-295; 19.6 µM (inactive) with DU-145; 7.1 µM (inactive) with MCF7. Besides, the GI50 is 10.1 µM (inactive) with OVCAR-8; 4.22 µM (inactive) in the assay on RPMI-8226; 9.42 µM (inactive) in the assay on NCI-H460; 7.83 µM (inactive) with SK-MEL-2; 12.2 µM (inactive) in the assay on UACC-257; 7.69 µM (inactive) in the assay on SR. Also, the GI50 was 2.47 µM (inactive) in the assay on COLO 205; 6.41 µM (inactive) in the assay with NCI-H226; 15.7 µM (inactive) in the assay with UO-31; 6.22 µM (inactive) with T47D; 16 µM (inactive) with SK-MEL-28; 23.8 µM (inactive) in the assay on ACHN. In addition, the GI50 in the assay with SK-OV-3 is 21.3 µM (inactive); in the assay on HCT-15 it was 31 µM.

In general, GI50 refers to the concentration at which growth is held to half of that of the control.
